Measurements: ChEMBL document CHEMBL2046329, “Furin inhibitors: importance of the positive formal charge and beyond” (Bioorg Med Chem, 2012)
Residues, ends and D or L forms follow the SMILES beside them.

What follows are compounds tested against Furin (Homo sapiens, UniProt P09958) (assay: Inhibition of furin).
Chain of Furin (P09958 whole entry): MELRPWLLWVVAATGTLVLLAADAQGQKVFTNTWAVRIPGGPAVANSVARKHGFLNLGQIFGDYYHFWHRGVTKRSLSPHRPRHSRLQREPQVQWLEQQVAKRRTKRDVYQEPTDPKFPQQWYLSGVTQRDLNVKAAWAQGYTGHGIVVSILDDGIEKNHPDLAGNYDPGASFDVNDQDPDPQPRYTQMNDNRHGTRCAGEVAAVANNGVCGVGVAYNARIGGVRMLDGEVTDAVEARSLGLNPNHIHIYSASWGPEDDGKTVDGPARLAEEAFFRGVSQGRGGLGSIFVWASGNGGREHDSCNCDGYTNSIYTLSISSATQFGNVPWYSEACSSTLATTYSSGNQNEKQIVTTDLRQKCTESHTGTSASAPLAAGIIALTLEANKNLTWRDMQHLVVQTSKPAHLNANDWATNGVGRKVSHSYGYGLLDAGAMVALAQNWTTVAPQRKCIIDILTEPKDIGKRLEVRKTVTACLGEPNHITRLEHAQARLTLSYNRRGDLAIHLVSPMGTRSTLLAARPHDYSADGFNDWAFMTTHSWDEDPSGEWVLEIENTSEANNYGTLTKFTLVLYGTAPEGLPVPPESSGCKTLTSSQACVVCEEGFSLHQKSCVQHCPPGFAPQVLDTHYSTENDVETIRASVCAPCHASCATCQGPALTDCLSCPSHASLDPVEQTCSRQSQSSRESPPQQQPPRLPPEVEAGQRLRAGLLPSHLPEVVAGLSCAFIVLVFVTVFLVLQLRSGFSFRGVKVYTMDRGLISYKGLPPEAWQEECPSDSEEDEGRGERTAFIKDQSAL

Ki [nM]	Compound
3400	CC(=O)N[C@@H](CC(C)C)C(=O)N[C@@H](Cc1ccc(O)cc1)C(=O)N[C@@H](CCCN=C(N)N)C(=O)N[C@H](C(=O)N[C@@H](CCCCN)C(=O)N[C@@H](CCCN=C(N)N)C(N)=O)C(C)C (Ac-LYRVKR-NH2)
3.3	CCCCCCCCCC(=O)N[C@@H](CCCN=C(N)N)C(=O)N[C@H](C(=O)N[C@@H](CCCCN)C(=O)Nc1ccc(C(=N)N)cc1)C(C)C
2730	CC(C)[C@H](NC(=O)[C@H](CCCN=C(N)N)NCC(=O)Oc1ccccc1)C(=O)N[C@@H](CCCN=C(N)N)C(=O)Nc1cccc(CN=C(N)N)c1
800	CC(C)C[C@H](NC(=O)[C@@H](N)CC(C)C)C(=O)N[C@@H](CCCNC(=N)N)C(=O)N[C@H](C(=O)N[C@@H](CCCCN)C(=O)N[C@@H](CCCNC(=N)N)C(N)=O)C(C)C
3020	CC(C)[C@H](NC(=O)[C@H](CCCN=C(N)N)NCC(=O)Oc1ccccc1)C(=O)N[C@@H](CCCN=C(N)N)C(=O)NCCCN
627	CCc1ccc(NC(=O)[C@H](CCCNC(=N)N)NC(=O)[C@@H](NC(=O)[C@H](CCCNC(=N)N)NCC(=O)Oc2ccccc2)C(C)C)cc1
6400	N=C(N)NCCC[C@H](NC(=O)[C@H](CCCNC(=N)N)NC(=O)[C@H](CCCNC(=N)N)NC(=O)[C@@H](N)CCCNC(=N)N)C(=O)O (H-RRRR-OH)
990	N=C(N)NCCC[C@H](NC(=O)[C@H](CCCNC(=N)N)NC(=O)[C@H](CCCNC(=N)N)NC(=O)[C@H](CCCNC(=N)N)NC(=O)[C@@H](N)CCCNC(=N)N)C(=O)O (H-RRRRR-OH)
63	CC(C)[C@H](NC(=O)[C@H](CCCNC(=N)N)NCC(=O)Oc1ccccc1)C(=O)N[C@@H](CCCNC(=N)N)C(=O)NCCCNC(=N)N
190	CC(=O)N[C@@H](CC(C)C)C(=O)N[C@@H](CCCCN)C(=O)N[C@@H](CCCN=C(N)N)C(=O)N[C@H](C(=O)N[C@@H](CCCCN)C(=O)N[C@@H](CCCN=C(N)N)C(N)=O)C(C)C (Ac-LKRVKR-NH2)
553	CC(C)[C@H](NC(=O)[C@H](CCCNC(=N)N)NCC(=O)Oc1ccccc1)C(=O)N[C@@H](CCCNC(=N)N)C(=O)NCCCCCN
1900	CSCC[C@H](NC(=O)[C@H](CC(C)C)NC(C)=O)C(=O)N[C@@H](CCCNC(=N)N)C(=O)N[C@H](C(=O)N[C@@H](CCCCN)C(=O)N[C@@H](CCCNC(=N)N)C(N)=O)C(C)C (Ac-LMRVKR-NH2)
1430	CC(C)[C@H](NC(=O)[C@H](CCCNC(=N)N)NCC(=O)Oc1ccccc1)C(=O)N[C@@H](CCCNC(=N)N)C(=O)Nc1ccc(CNC(=N)N)cc1
3500	CC(=O)N[C@@H](CC(C)C)C(=O)N[C@@H](CC(C)C)C(=O)N[C@@H](CCCN=C(N)N)C(=O)N[C@H](C(=O)N[C@@H](CCCCN)C(=O)N[C@@H](CCCN=C(N)N)C(=O)O)C(C)C
53	CC(C)[C@H](NC(=O)[C@H](CCCN=C(N)N)NCC(=O)Oc1ccccc1)C(=O)N[C@@H](CCCN=C(N)N)C(=O)NC1CCN(C(=N)N)CC1
114	NC(N)=NCCC[C@H](NC(=O)[C@H](CCCN=C(N)N)NC(=O)[C@H](CCCN=C(N)N)NC(=O)[C@H](CCCN=C(N)N)NC(=O)[C@H](CCCN=C(N)N)NC(=O)[C@@H](N)CCCN=C(N)N)C(=O)O
1400	CC(=O)N[C@@H](CC(C)C)C(=O)N[C@@H](CC(C)C)C(=O)N[C@@H](CCCN=C(N)N)C(=O)N[C@H](C(=O)N[C@@H](CCCCN)C(=O)N[C@@H](CCCN=C(N)N)C(N)=O)C(C)C
9710	CC(C)[C@H](NC(=O)[C@H](CCCNC(=N)N)NCC(=O)Oc1ccccc1)C(=O)N[C@@H](CCCNC(=N)N)C(=O)NC1CCNCC1
7490	CC(C)[C@H](NC(=O)[C@H](CCCNC(=N)N)NCC(=O)Oc1ccccc1)C(=O)N[C@@H](CCCNC(=N)N)C(=O)NCCCCN
1	CC(=O)N[C@@H](CCCNC(=N)N)C(=O)N[C@H](C(=O)N[C@@H](CCCNC(=N)N)C(=O)Nc1ccc(C(=N)N)cc1)C(C)C
1.6	CCCCCCCCCC(=O)N[C@@H](CCCN=C(N)N)C(=O)N[C@H](C(=O)N[C@@H](CCCN=C(N)N)C(=O)Nc1ccc(C(=N)N)cc1)C(C)C
1320	CC(C)[C@H](NC(=O)[C@H](CCCN=C(N)N)NCC(=O)Oc1ccccc1)C(=O)N[C@@H](CCCN=C(N)N)C(=O)Nc1cccc(CN)c1
420	CC(C)C[C@H](NC(=O)[C@@H](N)CC(C)C)C(=O)N[C@@H](CCCNC(=N)N)C(=O)N[C@H](C(=O)N[C@@H](CCCCN)C(=O)N[C@@H](CCCNC(=N)N)C(=O)O)C(C)C
1070	CC(C)[C@H](NC(=O)[C@H](CCCN=C(N)N)NCC(=O)Oc1ccccc1)C(=O)N[C@@H](CCCN=C(N)N)C(=O)NCCCCCN=C(N)N
78	CC(C)[C@H](NC(=O)[C@H](CCCNC(=N)N)NCC(=O)Oc1ccccc1)C(=O)N[C@@H](CCCNC(=N)N)C(=O)NCCCCNC(=N)N
